Laboratory results as given in patent US6479435B1, “Diaryl ethers and processes for their preparation and herbicidal and desiccant compositions containing them” (ISK Americas Incorporated, priority 1997, dated 2002).

Experiments:
Type in all cases: in vivo
[1] = test system: field corn (Zea mays L., var. Dekalb 535, CORN); test: Post-emerge greenhouse test, crop damage rating; conditions: 14 days after application
Excerpt: (§1) A standard greenhouse herbicide activity screening system was used to evaluate the herbicidal efficacy and crop safety of these test compounds. Six broadleaf weed species including redroot pigweed (Amaranthus retroflexus, AMARE), velvetleaf (Abutilon theophrasti, ABUTH), sicklepod (Cassia obtusifolia, CASOB), ivyleaf morningglory (Ipomoea hederacea, IPOHE), lambsquarters (Chenopodium album, CHEAL) and common ragweed (Ambrosia artemisiifolia L., AMBEL) were used as test species. Four grass weed species including green foxtail (Setaria viridis, SETVI), barnyardgrass (Echinochloa crusgalli, ECHCG), Johnsongrass (Sorghum halepense, SORHA), and large crabgrass (Digitaria sanguinalis, DIGSA) were also used. In addition, three crop species, field corn (Zea mays L., var. Dekalb 535, CORN), soybean (Glycine max L., var. Pella 86, SOY), and upland rice (Oryza sp., var.Tebonnet, RICE) were included.
(§2) All test compounds were dissolved in acetone and applied to the test units in a volume of 187 l/ha. Test materials were applied at rates ranging from 125 g ai/ha to 1000 g ai/ha using a track sprayer equipped with a TJ8001E even flow flat fan spray nozzle. Plants were arranged on a shelf so that the top of the canopy (post-emerge) or top of the soil surface (pre-emerge) was 40-45 cm below the nozzle. Pressurized air was used to force the test solution through the nozzle as it was mechanically advanced (via electrically driven chain drive) over the top of all test plants/pots. This application simulates a typical commercial field herbicide application.
(§3) In the post-emerge test, a commercial non-ionic surfactant was also included (0.25% v/v) to enhance wetting of the leaf surfaces Qf target plants at rates ranging from 63 g ai/ha to 1000 g ai/ha. For post-emerge tests, seeds were planted 8-21 days prior to the test to allow emergence and good foliage development prior to application of the test substances. At the time of the post-emerge application, plants of all species were usually at the 2-3 leaf stage of development. Post-emerge test units were always bottom-watered.
(§4) At 14 days after application of the test materials, phytotoxicity ratings were recorded. A rating scale of 0-100 was used as previously described in Research Methods in Weed Science, 2nd edition, B. Truelove, Ed., Southern Weed Science Society, Auburn University, Auburn, Ala., 1977. Briefly, “0” corresponds to no damage and “100” corresponds to complete death of all plants in the test unit. This scale was used both to determine efficacy against weed species and damage to crop species. Herbicide activity data for various compounds of this invention, which are shown by compound number in Tables 1-9, are shown in Tables 13 and 14.

[2] = test system: upland rice (Oryza sp., var.Tebonnet, RICE); test: Post-emerge greenhouse test, crop damage rating; conditions: 14 days after application
Excerpt: as §1, §2, §3, §4

[3] = test system: field corn (Zea mays L., var. Dekalb 535, CORN); test: Pre-emerge greenhouse test, crop damage rating; conditions: 14 days after application, rating scale 0-100
Excerpt: as §1
(§5) All plants were grown in 10 cm square plastic pots which were filled with a sandy loam soil mix. For preemerge tests, seeds were planted one day prior to application of the test compounds. Immediately after application, test units of the pre-emerge applications were watered at the soil surface to incorporate the test materials. Subsequently, these test units were bottom-watered.
as §2, §4

[4] = test system: upland rice (Oryza sp., var.Tebonnet, RICE); test: Pre-emerge greenhouse test, crop damage rating; conditions: 14 days after application, rating scale 0-100
Excerpt: as §1, §5, §2, §4

[5] = test system: ivyleaf morningglory (Ipomoea hederacea, IPOHE); test: Pre-emerge greenhouse herbicide test, phytotoxicity rating; conditions: 14 days after application, rating scale 0-100
Excerpt: as §1, §5, §2, §4

[6] = test system: redroot pigweed (Amaranthus retroflexus, AMARE); test: as above; conditions: 14 days after application, rating scale 0-100
Excerpt: as §1, §5, §2, §4

[7] = test system: Johnsongrass (Sorghum halepense, SORHA); test: as above; conditions: 14 days after application, rating scale 0-100
Excerpt: as §1, §5, §2, §4

[8] = test system: barnyardgrass (Echinochloa crusgalli, ECHCG); test: as above; conditions: 14 days after application, rating scale 0-100
Excerpt: as §1, §5, §2, §4

[9] = test system: large crabgrass (Digitaria sanguinalis, DIGSA); test: as above; conditions: 14 days after application, rating scale 0-100
Excerpt: as §1, §5, §2, §4

[10] = test system: sicklepod (Cassia obtusifolia, CASOB); test: as above; conditions: 14 days after application, rating scale 0-100
Excerpt: as §1, §5, §2, §4

[11] = test system: velvetleaf (Abutilon theophrasti, ABUTH); test: as above; conditions: 14 days after application, rating scale 0-100
Excerpt: as §1, §5, §2, §4

[12] = test system: lambsquarters (Chenopodium album, CHEAL); test: as above; conditions: 14 days after application, rating scale 0-100
Excerpt: as §1, §5, §2, §4

[13] = test system: green foxtail (Setaria viridis, SETVI); test: as above; conditions: 14 days after application, rating scale 0-100
Excerpt: as §1, §5, §2, §4

[14] = test system: soybean (Glycine max L., var. Pella 86, SOY); test: Pre-emerge greenhouse test, crop damage rating; conditions: 14 days after application, rating scale 0-100
Excerpt: as §1, §5, §2, §4

[15] = test system: ivyleaf morningglory (Ipomoea hederacea, IPOHE); test: Post-emerge greenhouse herbicide test, phytotoxicity rating; conditions: 14 days after application
Excerpt: as §1, §2, §3, §4

[16] = test system: redroot pigweed (Amaranthus retroflexus, AMARE); test: as above; conditions: 14 days after application
Excerpt: as §1, §2, §3, §4

[17] = test system: Johnsongrass (Sorghum halepense, SORHA); test: as above; conditions: 14 days after application
Excerpt: as §1, §2, §3, §4

[18] = test system: barnyardgrass (Echinochloa crusgalli, ECHCG); test: as above; conditions: 14 days after application
Excerpt: as §1, §2, §3, §4

[19] = test system: large crabgrass (Digitaria sanguinalis, DIGSA); test: as above; conditions: 14 days after application
Excerpt: as §1, §2, §3, §4

[20] = test system: sicklepod (Cassia obtusifolia, CASOB); test: as above; conditions: 14 days after application
Excerpt: as §1, §2, §3, §4

[21] = test system: velvetleaf (Abutilon theophrasti, ABUTH); test: as above; conditions: 14 days after application
Excerpt: as §1, §2, §3, §4

[22] = test system: lambsquarters (Chenopodium album, CHEAL); test: as above; conditions: 14 days after application
Excerpt: as §1, §2, §3, §4

[23] = test system: green foxtail (Setaria viridis, SETVI); test: as above; conditions: 14 days after application
Excerpt: as §1, §2, §3, §4

[24] = test system: soybean (Glycine max L., var. Pella 86, SOY); test: Post-emerge greenhouse test, crop damage rating; conditions: 14 days after application
Excerpt: as §1, §2, §3, §4

O=c1cc2n(c(=O)n1-c1cc(Oc3ncccn3)c(Cl)cc1F)CCC2 [Compound 5-12]
CORN crop damage rating (0-100) ([1]; 63 g al/ha): 0
CORN crop damage rating (0-100) ([1]; 500 g al/ha): 20
RICE crop damage rating (0-100) ([2]; 63 g al/ha): 0
RICE crop damage rating (0-100) ([2]; 500 g al/ha): 70
crop damage rating CORN ([3]; 125 g ai/ha): 10
crop damage rating CORN ([3]; 500 g ai/ha): 40
crop damage rating RICE ([4]; 125 g ai/ha): 60
crop damage rating RICE ([4]; 500 g ai/ha): 100
phytotoxicity rating IPOHE ([5]; 125 g ai/ha): 80
phytotoxicity rating IPOHE ([5]; 500 g ai/ha): 100
phytotoxicity rating AMARE ([6]; 125 g ai/ha): 100
phytotoxicity rating AMARE ([6]; 500 g ai/ha): 100
phytotoxicity rating SORHA ([7]; 125 g ai/ha): 40
phytotoxicity rating SORHA ([7]; 500 g ai/ha): 100
phytotoxicity rating ECHCG ([8]; 125 g ai/ha): 20
phytotoxicity rating ECHCG ([8]; 500 g ai/ha): 100
phytotoxicity rating DIGSA ([9]; 125 g ai/ha): 100
phytotoxicity rating DIGSA ([9]; 500 g ai/ha): 100
phytotoxicity rating CASOB ([10]; 125 g ai/ha): 50
phytotoxicity rating CASOB ([10]; 500 g ai/ha): 100
phytotoxicity rating ABUTH ([11]; 125 g ai/ha): 100
phytotoxicity rating ABUTH ([11]; 500 g ai/ha): 100
phytotoxicity rating CHEAL ([12]; 125 g ai/ha): 100
phytotoxicity rating CHEAL ([12]; 500 g ai/ha): 100
phytotoxicity rating SETVI ([13]; 125 g ai/ha): 100
phytotoxicity rating SETVI ([13]; 500 g ai/ha): 100
crop damage rating SOY ([14]; 125 g ai/ha): 40
crop damage rating SOY ([14]; 500 g ai/ha): 80
IPOHE phytotoxicity rating (0-100) ([15]; 63 g al/ha): 40
IPOHE phytotoxicity rating (0-100) ([15]; 500 g al/ha): 30
AMARE phytotoxicity rating (0-100) ([16]; 63 g al/ha): 80
AMARE phytotoxicity rating (0-100) ([16]; 500 g al/ha): 40
SORHA phytotoxicity rating (0-100) ([17]; 63 g al/ha): 0
SORHA phytotoxicity rating (0-100) ([17]; 500 g al/ha): 20
ECHCG phytotoxicity rating (0-100) ([18]; 63 g al/ha): 0
ECHCG phytotoxicity rating (0-100) ([18]; 500 g al/ha): 40
DIGSA phytotoxicity rating (0-100) ([19]; 63 g al/ha): 0
DIGSA phytotoxicity rating (0-100) ([19]; 500 g al/ha): 40
CASOB phytotoxicity rating (0-100) ([20]; 63 g al/ha): 10
CASOB phytotoxicity rating (0-100) ([20]; 500 g al/ha): 50
ABUTH phytotoxicity rating (0-100) ([21]; 63 g al/ha): 60
ABUTH phytotoxicity rating (0-100) ([21]; 500 g al/ha): 95
CHEAL phytotoxicity rating (0-100) ([22]; 63 g al/ha): 60
CHEAL phytotoxicity rating (0-100) ([22]; 500 g al/ha): 75
SETVI phytotoxicity rating (0-100) ([23]; 63 g al/ha): 0
SETVI phytotoxicity rating (0-100) ([23]; 500 g al/ha): 50
SOY crop damage rating (0-100) ([24]; 63 g al/ha): 50
SOY crop damage rating (0-100) ([24]; 500 g al/ha): 100

CCOC(=O)C(C)Oc1ccc(Oc2cc(-n3c(=O)cc4n(c3=O)CCC4)c(F)cc2Cl)cc1 (stereo not drawn) [Compound 5-6]
CORN crop damage rating (0-100) ([1]; 1000 g al/ha): 80
RICE crop damage rating (0-100) ([2]; 1000 g al/ha): 60
crop damage rating CORN ([3]; 1000 g ai/ha): 40
crop damage rating RICE ([4]; 1000 g ai/ha): 80
phytotoxicity rating IPOHE ([5]; 1000 g ai/ha): 100
phytotoxicity rating AMARE ([6]; 1000 g ai/ha): 100
phytotoxicity rating SORHA ([7]; 1000 g ai/ha): 50
phytotoxicity rating ECHCG ([8]; 1000 g ai/ha): 70
phytotoxicity rating DIGSA ([9]; 1000 g ai/ha): 70
phytotoxicity rating CASOB ([10]; 1000 g ai/ha): 40
phytotoxicity rating ABUTH ([11]; 1000 g ai/ha): 100
phytotoxicity rating CHEAL ([12]; 1000 g ai/ha): 100
phytotoxicity rating SETVI ([13]; 1000 g ai/ha): 100
crop damage rating SOY ([14]; 1000 g ai/ha): 60
IPOHE phytotoxicity rating (0-100) ([15]; 1000 g al/ha): 100
AMARE phytotoxicity rating (0-100) ([16]; 1000 g al/ha): 90
SORHA phytotoxicity rating (0-100) ([17]; 1000 g al/ha): 95
ECHCG phytotoxicity rating (0-100) ([18]; 1000 g al/ha): 95
DIGSA phytotoxicity rating (0-100) ([19]; 1000 g al/ha): 40
CASOB phytotoxicity rating (0-100) ([20]; 1000 g al/ha): 40
ABUTH phytotoxicity rating (0-100) ([21]; 1000 g al/ha): 100
CHEAL phytotoxicity rating (0-100) ([22]; 1000 g al/ha): 100
SETVI phytotoxicity rating (0-100) ([23]; 1000 g al/ha): 50
SOY crop damage rating (0-100) ([24]; 1000 g al/ha): 80
